Several values for one entry are separate records, joined by “and”; a condition that tells them apart may be missing. Identical values can stand only once. Like-named read-outs stand apart in the source and are kept apart here.
How the values were obtained:
Format in all cases: in vivo
[1] = system: Polygonum convolvulus (wild buckwheat); assay: Greenhouse postemergence herbicidal effect on POLCO; details: for Herbicidal Effects (% visual injury) POLCO Obs: Ethephon 0 g/ha
Source text: (§1) Seeds of the desired test plant species were planted in a 90:10% v/v (volume/volume) mixture of PRO-MIX® BX (Premier Tech Horticulture, Quakertown, Pa., USA) and PROFILE® GREENS GRADE™ (Profile Products LLC, Buffalo Grove, Ill., USA) planting mixture, which typically has a pH of 5.2 to 6.2 and an organic matter content of at least 50 percent, in plastic pots with a surface area of 103.2 square centimeters (cm^2). In some aspects, to help ensure good germination and healthy plants, a fungicide treatment and/or other chemical or physical treatment was applied. The plants were grown for 7-36 days (d) in a greenhouse with an approximate 14-hour (h) photoperiod which was maintained at about 23° C. during the day and 22° C. during the night. Nutrients and water were added on a regular basis and supplemental lighting was provided with overhead metal halide 1000-Watt lamps as necessary. The plants were employed for testing when they reached the second or third true leaf stage.
(§2) Emulsifiable concentrates of each of each pyridine carboxylate herbicide (Compound A or Compound B) were prepared at 100 grams acid equivalent per liter (g ae/L). The emulsifiable concentrates also included a safener, cloquintocet-mexyl, at 120 grams active ingredient per liter (g ai/L). An aliquot of each emulsifiable concentrate was placed in a 25 mL glass vial and diluted with an aqueous mixture of 1.25% (v/v) ACTIROB® B esterified rapeseed oil (Bayer Crop Science, Research Triangle Park, N.C., USA) or MSO® Concentrate with LECI-TECH® methylated soybean oil (Loveland Products, Loveland, Colo., USA) to obtain concentrated stock solutions at the highest application rate for each herbicide, based upon a 12 milliliter (mL) application volume at a rate of 187 liters per hectare (L/ha). The concentrated stock solutions were further diluted with an aqueous mixture of 1.25% v/v ACTIROB® B or MSO® Concentrate with LECI-TECH® to obtain stock solutions at reduced application rates for each herbicide. Spray solutions of the herbicide combinations (Compound A or Compound B plus the PGR) were prepared by adding weighed amounts or aliquots of the PGR to the stock solutions of Compound A or Compound B to form 12-mL spray solutions in two-way combinations.
(§3) The spray solutions were applied to the plant material with an overhead Mandel track sprayer equipped with 8002E nozzles calibrated to deliver 187 L/ha over an application area of 0.503 square meters (m^2) at a spray height of 18 inches (43 centimeters (cm)) above the average plant canopy. Control plants were sprayed in the same manner with the solvent blank. All pyridine carboxylate herbicide (component a) application rates are given as “g ae/ha” and all PGR (component b) application rates are given as “g ai/ha.”
(§4) The treated plants and control plants were placed in a greenhouse as described above and watered by sub-irrigation to prevent wash-off of the test compounds. After 20-22 d, the condition of the test plants as compared with that of the control plants was determined visually and scored on a scale of 0 to 100 percent where 0 corresponds to no injury and 100 corresponds to complete kill.

[2] = system: Cyanus segetum (cornflower); assay: Greenhouse postemergence herbicidal effect on CENCY
Source text: as §1
(§5) Emulsifiable concentrates of each of each pyridine carboxylate herbicide (Compound A or Compound B) were prepared at 100 grams acid equivalent per liter (g ae/L). The emulsifiable concentrates also included a safener, cloquintocet-mexyl, at 120 grams active ingredient per liter (g ai/L). […]
as §4

[3] = system: Anthemis arvensis (corn chamomile); assay: Greenhouse postemergence herbicidal effect on ANTAR
Source text: as §1, §5, §4

[4] = system: Salsola kali (Russian thistle); assay: Greenhouse postemergence herbicidal effect on SASKR
Source text: as §1, §5, §4

[5] = system: Digitaria sanguinalis (large crabgrass); assay: Greenhouse postemergence herbicidal effect on DIGSA; details: Ethephon 0 g/ha
Source text: as §1, §5
as §4, with “kill. […]” for “kill.”

[6] = system: Chenopodium album L. (common lambsquarters); assay: Greenhouse postemergence herbicidal effect on CHEAL; details: Ethephon 0 g/ha
Source text: as §1, §2, §3, §4

[7] = system: Euphorbia heterophylla (poinsettia); assay: Greenhouse postemergence herbicidal effect on EPHHL; details: for Herbicidal Effects (% visual injury) EPHHL Obs: Ethephon 0 g/ha
Source text: as §1, §2, §3, §4

[8] = system: Cyperus esculentus (yellow nutsedge); assay: Greenhouse postemergence herbicidal effect on CYPES; details: Ethephon 0 g/ha
Source text: as §1, §5
as §4, with “kill. […]” for “kill.”

Glycine max (soybean) = assay: Greenhouse postemergence herbicidal effect on GLXMA
Source text: as §1, §2, §3, §4

[9] = system: Brassica napus (winter rape); assay: Greenhouse postemergence herbicidal effect on BRSNW
Source text: as §1, §5, §4

[10] = system: Triticum aestivum (spring wheat)
Source text: as §1, §2, §3, §4

[11] = system: Hordeum vulgare (spring barley)
Source text: as §1, §2, §3, §4

Zea mays (maize) = details: for Herbicidal Effects (% visual injury) ZEAMX Obs: Ethephon 0 g/ha
Source text: as §1, §2, §3, §4

[12] = system: Sorghum vulgare (grain sorghum); details: for Herbicidal Effects (% visual injury) SORVU Obs: Ethephon 0 g/ha
Source text: as §1, §2, §3, §4

[13] = system: Hordeum vulgare (winter barley)
Source text: as §1, §2, §3, §4

[14] = system: Triticum aestivum (winter wheat)
Source text: as §1, §2, §3, §4

[15] = system: Papaver rhoeas (common poppy); assay: Greenhouse postemergence herbicidal effect on PAPRH
Source text: as §1, §5, §4

N#CCOC(=O)c1nc(-c2ccc3cc[nH]c3c2F)c(F)c(N)c1Cl [Compound A, cyanomethyl 4-amino-3-chloro-5-fluoro-6-(7-fluoro-1H-indol-6-yl)pyridine-2-carboxylate]
Herbicidal Effects (% visual injury) POLCO Obs ([1]; Compound A 7.5 g/ha): 100%
Herbicidal Effects (% visual injury) POLCO Obs ([1]; Compound A 10 g/ha): 100%
% visual injury Obs ([1]; herbicide 7.5 g ae/ha alone): 68% and 83% and 65%
% visual injury Obs ([1]; herbicide 10 g ae/ha alone): 70% and 93% and 78%
% visual injury Obs ([1]; herbicide 15 g ae/ha alone): 85%
% visual injury Obs ([2]; herbicide 7.5 g ae/ha alone): 75%
% visual injury Obs ([2]; herbicide 10 g ae/ha alone): 78%
% visual injury Obs ([2]; herbicide 15 g ae/ha alone): 80%
% visual injury Obs ([3]; herbicide 7.5 g ae/ha alone): 68%
% visual injury Obs ([3]; herbicide 10 g ae/ha alone): 70%
% visual injury Obs ([3]; herbicide 15 g ae/ha alone): 88%
% visual injury Obs ([4]; herbicide 7.5 g ae/ha alone): 50%
% visual injury Obs ([4]; herbicide 10 g ae/ha alone): 60%
% visual injury Obs ([4]; herbicide 15 g ae/ha alone): 63%
Herbicidal Effects (% visual injury) DIGSA Obs ([5]; Compound A 7.5 g/ha): 10%
Herbicidal Effects (% visual injury) DIGSA Obs ([5]; Compound A 10 g/ha): 10%
Herbicidal Effects (% visual injury) CHEAL Obs ([6]; Compound A 7.5 g/ha): 100%
Herbicidal Effects (% visual injury) CHEAL Obs ([6]; Compound A 10 g/ha): 100%
Herbicidal Effects (% visual injury) EPHHL Obs ([7]; Compound A 7.5 g/ha): 100%
Herbicidal Effects (% visual injury) EPHHL Obs ([7]; Compound A 10 g/ha): 100%
% visual injury Obs ([7]; herbicide 7.5 g ae/ha alone): 91%
% visual injury Obs ([7]; herbicide 10 g ae/ha alone): 83%
Herbicidal Effects (% visual injury) CYPES Obs ([8]; Compound A 7.5 g/ha): 58%
Herbicidal Effects (% visual injury) CYPES Obs ([8]; Compound A 10 g/ha): 38%
% visual injury Obs (Glycine max (soybean); herbicide 7.5 g ae/ha alone): 100% and 80%
% visual injury Obs (Glycine max (soybean); herbicide 10 g ae/ha alone): 99% and 90%
% visual injury Obs ([9]; herbicide 7.5 g ae/ha alone): 60%
% visual injury Obs ([9]; herbicide 10 g ae/ha alone): 65%
% visual injury Obs ([9]; herbicide 15 g ae/ha alone): 73%
% visual injury Obs ([10]; herbicide 7.5 g ae/ha alone): 0% and 5%
% visual injury Obs ([10]; herbicide 10 g ae/ha alone): 0% and 3%
% visual injury Obs ([10]; herbicide 15 g ae/ha alone): 0%
% visual injury Obs ([11]; herbicide 7.5 g ae/ha alone): 0%
% visual injury Obs ([11]; herbicide 10 g ae/ha alone): 0%
% visual injury Obs ([11]; herbicide 15 g ae/ha alone): 0%
Herbicidal Effects (% visual injury) ZEAMX Obs (Zea mays (maize); Compound A 7.5 g/ha): 0%
Herbicidal Effects (% visual injury) ZEAMX Obs (Zea mays (maize); Compound A 10 g/ha): 5%
% visual injury Obs (Zea mays (maize); herbicide 7.5 g ae/ha alone): 0%
% visual injury Obs (Zea mays (maize); herbicide 10 g ae/ha alone): 0%
Herbicidal Effects (% visual injury) SORVU Obs ([12]; Compound A 7.5 g/ha): 8%
Herbicidal Effects (% visual injury) SORVU Obs ([12]; Compound A 10 g/ha): 8%
% visual injury Obs ([12]; herbicide 7.5 g ae/ha alone): 0%
% visual injury Obs ([12]; herbicide 10 g ae/ha alone): 0%
% visual injury Obs ([13]; herbicide 7.5 g ae/ha alone): 0%
% visual injury Obs ([13]; herbicide 10 g ae/ha alone): 0%
% visual injury Obs ([13]; herbicide 15 g ae/ha alone): 0%
% visual injury Obs ([14]; herbicide 7.5 g ae/ha alone): 0%
% visual injury Obs ([14]; herbicide 10 g ae/ha alone): 0%
% visual injury Obs ([14]; herbicide 15 g ae/ha alone): 0%
% visual injury Obs ([15]; herbicide 7.5 g ae/ha alone): 100%
% visual injury Obs ([15]; herbicide 10 g ae/ha alone): 99%
% visual injury Obs ([15]; herbicide 15 g ae/ha alone): 100%

— patent US20210392890A1, “COMPOSITIONS COMPRISING PYRIDINE CARBOXYLATE HERBICIDES AND PLANT GROWTH REGULATORS” (Corteva Agriscience LLC, priority 2018, published 2021)
